According to US20240199542A1, “SUBSTITUTED PYRROLIDIN-2-ONES, SALTS THEREOF AND THEIR USE AS HERBICIDALLY ACTIVE SUBSTANCES” (Bayer Aktiengesellschaft, priority 2021, published 2024):

Legend:
Format in all cases: in vivo
Avena fatua (AVEFA) [1] = assay: Herbicidal pre-emergence action; conditions: 1280 g/ha, graded after ca. 3 weeks
Excerpt: (§1) Seeds of mono- and dicotyledonous weed plants and crop plants were sown, in plastic or organic planting pots, in sandy loam and covered with soil. The compounds according to the invention, formulated in the form of wettable powders (WP) or as emulsifiable concentrates (EC), were applied to the surface of the covering soil as aqueous suspension or emulsion, with the addition of 0.5% of an additive, at an application rate of 600 1 of water/ha (converted).
(§2) Following treatment, the pots were placed in a greenhouse and kept under optimum growth conditions for the test plants. The visual grading of the damage to the test plants was carried out after ca. 3 weeks in comparison to untreated controls (herbicidal effect in percent (%): 100% effect=plants have died off, 0% effect=as control plants).
(§3) Tables A1 to A16, below, show the effects of selected compounds of the general formula (I) according to table 1 on various harmful plants and an application rate corresponding to 1280 g/ha or lower obtained by the experimental procedure mentioned above.

[2] = system: Echinochloa crus-galli (ECHCG); assay: Herbicidal pre-emergence action; conditions: 1280 g/ha, graded after ca. 3 weeks
Excerpt: as §1, §2, §3

[3] = system: Alopecurus myosuroides (ALOMY); assay: Herbicidal post-emergence action; conditions: 1280 g/ha, assessed after ca. 3 weeks
Excerpt: (§4) Seeds of mono- and dicotyledonous weed plants and crop plants were sown, in plastic or organic planting pots, in sandy loam, covered with soil and grown in a greenhouse under controlled growth conditions. 2 to 3 weeks after sowing, the test plants were sprayed in the single-leaf stage. The compounds according to the invention, formulated in form of wettable powders (WP) or as emulsifiable concentrates (EC), were sprayed onto the green plant parts as aqueous suspension or emulsion, with the addition of 0.5% of an additive, at an application rate of 600 1 of water/ha (converted). The test plants were placed in the greenhouse for ca. 3 weeks under optimum growth conditions, and then the effect of the preparations was assessed visually in comparison with untreated controls (herbicidal effect in percent (%): 100% effect=plants have died off, 0% effect=as control plants).
(§5) Tables B1 to B16 below show the effects of selected compounds of the general formula (I) according to table 1 on various harmful plants and an application rate corresponding to 1280 g/ha or 320 g/ha obtained by the experimental procedure mentioned above.

Avena fatua (AVEFA) [4] = assay: Herbicidal post-emergence action; conditions: 1280 g/ha, assessed after ca. 3 weeks
Excerpt: as §4, §5

[5] = system: Echinochloa crus-galli (ECHCG); assay: Herbicidal post-emergence action; conditions: 1280 g/ha, assessed after ca. 3 weeks
Excerpt: as §4, §5

[6] = system: Lolium multiflorum (LOLMU); assay: Herbicidal post-emergence action; conditions: 1280 g/ha, assessed after ca. 3 weeks
Excerpt: as §4, §5

Setaria viridis (SETVI) [7] = assay: Herbicidal post-emergence action; conditions: 1280 g/ha, assessed after ca. 3 weeks
Excerpt: as §4, §5

[8] = system: Alopecurus myosuroides (ALOMY); assay: Herbicidal pre-emergence action; conditions: 1280 g/ha, graded after ca. 3 weeks
Excerpt: as §1, §2, §3

[9] = system: Lolium multiflorum (LOLMU); assay: Herbicidal pre-emergence action; conditions: 1280 g/ha, graded after ca. 3 weeks
Excerpt: as §1, §2, §3

[10] = system: Polygonum convolvulus (POLCO); assay: Herbicidal pre-emergence action; conditions: 1280 g/ha, graded after ca. 3 weeks
Excerpt: as §1, §2, §3

Setaria viridis (SETVI) [11] = assay: Herbicidal pre-emergence action; conditions: 1280 g/ha, graded after ca. 3 weeks
Excerpt: as §1, §2, §3

[12] = system: Cyperus esculentus (CYPES); assay: Herbicidal pre-emergence action; conditions: 1280 g/ha, graded after ca. 3 weeks
Excerpt: as §1, §2, §3

Veronica persica (VERPE) = assay: Herbicidal pre-emergence action; conditions: 1280 g/ha, graded after ca. 3 weeks
Excerpt: as §1, §2, §3

Structure (SMILES) | Pre-emergence activity against AVEFA (Avena fatua (AVEFA) [1]) | Pre-emergence activity against ECHCG [2] | Post-emergence activity against ALOMY [3] | Post-emergence activity against AVEFA (Avena fatua (AVEFA) [4]) | Post-emergence activity against ECHCG [5] | Post-emergence activity against LOLMU [6] | Post-emergence activity against SETVI (Setaria viridis (SETVI) [7]) | Pre-emergence activity against ALOMY [8] | Pre-emergence activity against LOLMU [9] | Pre-emergence activity against POLCO [10] | Pre-emergence activity against SETVI (Setaria viridis (SETVI) [11]) | Pre-emergence activity against CYPES [12] | Pre-emergence activity against VERPE (Veronica persica (VERPE))
Cc1ccc(CN2C(=O)CCC2CC(=O)O)c(F)c1F (racemic) [Example I-035] | 100% | 80% | 80% | 90% | 90% | 80% | 100% |  |  |  |  |  | 
CC(C)CC(NC(=O)CC1CCC(=O)N1Cc1cccc(F)c1F)C(=O)O (mixture of isomers) [Example I-045] | 90% | 80% | 80% |  |  | 80% | 80% |  |  |  |  |  | 
COC(=O)CC1CCC(=O)N1Cc1cccc(F)c1F (racemic) [Example I-008] | 100% | 90% | 80% | 90% | 90% | 80% | 80% | 90% | 80% | 90% | 90% |  | 
O=C(CC1CCC(=O)N1Cc1cccc(F)c1F)OC1CCC1 (racemic) [Example I-024] | 100% | 80% | 90% | 90% | 90% | 90% | 80% | 90% | 90% | 80% | 80% | 90% | 
CS(=O)(=O)NC(=O)CC1CCC(=O)N1Cc1cccc(Cl)c1Cl (racemic) [Example I-105] |  |  |  |  |  |  |  |  |  |  |  |  | 90%
O=C(CC1CCC(=O)N1Cc1cccc(F)c1F)NCc1ccc(Cl)nc1 (racemic) [Example I-102] |  |  |  |  |  |  |  |  |  | 80% |  |  | 90%
COc1ccc(OCCOC(=O)CC2CCC(=O)N2Cc2cccc(F)c2F)cc1 (racemic) [Example I-031] | 100% | 80% | 90% |  | 90% | 90% | 80% | 90% |  | 80% |  | 80% | 
Cc1ccc2c(c1)C(NC(=O)CC1CCC(=O)N1Cc1cccc(F)c1F)C(C)C2 (mixture of isomers) [Example I-106] |  |  |  |  |  |  |  |  |  |  |  |  | 80%
O=C(CC1CCC(=O)N1Cc1cccc(Cl)c1Cl)NS(=O)(=O)C(F)F (racemic) [Example I-095] |  |  |  |  |  |  |  |  |  |  |  |  | 80%
O=C(CC1CCC(=O)N1Cc1cccc(F)c1F)NC(Cc1ccccc1)C(=O)O (mixture of isomers) [Example I-044] | 90% | 80% |  |  | 90% |  | 80% | 80% |  | 90% |  |  | 
O=C(CC1CCC(=O)N1Cc1cccc(F)c1F)OCC1CC1 (racemic) [Example I-020] | 100% | 80% | 80% | 90% | 90% | 80% |  | 80% | 80% |  |  |  | 80%
CC(C)C(C)OC(=O)CC1CCC(=O)N1Cc1cccc(F)c1F (racemic) [Example I-036] | 100% | 80% | 80% | 90% | 90% |  |  | 90% | 80% | 80% | 100% |  | 90%
CCOC(=O)CC1CCC(=O)N1Cc1cccc(F)c1F (racemic) [Example I-019] | 100% | 90% | 80% | 100% | 80% | 90% |  | 90% | 90% | 90% | 90% | 80% | 
Cc1ccc(CN2C(=O)CCC2CC(=O)NS(C)(=O)=O)c(F)c1F (racemic) [Example I-087] |  |  |  |  |  |  |  | 90% |  |  |  |  | 100%
NC(=O)CC1CCC(=O)N1Cc1cccc(F)c1F (racemic) [Example I-057] | 80% |  |  |  |  |  |  | 90% |  | 80% | 80% | 100% | 
CC[C@@H](C)[C@@H](NC(=O)CC1CCC(=O)N1Cc1cccc(F)c1F)C(=O)O (single isomer, unassigned) [Example I-043] | 100% | 90% | 80% | 80% | 80% | 80% | 80% | 90% | 80% |  | 90% |  | 
O=C(CC1CCC(=O)N1Cc1cccc(F)c1F)OCCSc1ccccc1 (racemic) [Example I-022] | 90% |  |  | 90% | 90% | 80% | 90% | 90% |  |  | 80% |  | 
